The source of these data is US7790711B2, “Inhibitors of 11β-Hydroxysteroid Dehydrogenase” (Hoffmann-La Roche Inc., priority 2007, dated 2010).

The IC50 is the midpoint of a concentration-inhibition curve. The low end stands for greater potency in that assay, the high end for weaker potency in that assay.

The target of the assay is T1, human 11betaHSD1 (Homo sapiens, UniProt P28845).
T1 construct: stably transfected with full-length human 11betaHSD1 cDNA; expressed in transfected cells
T1 sequence (P28845 whole entry): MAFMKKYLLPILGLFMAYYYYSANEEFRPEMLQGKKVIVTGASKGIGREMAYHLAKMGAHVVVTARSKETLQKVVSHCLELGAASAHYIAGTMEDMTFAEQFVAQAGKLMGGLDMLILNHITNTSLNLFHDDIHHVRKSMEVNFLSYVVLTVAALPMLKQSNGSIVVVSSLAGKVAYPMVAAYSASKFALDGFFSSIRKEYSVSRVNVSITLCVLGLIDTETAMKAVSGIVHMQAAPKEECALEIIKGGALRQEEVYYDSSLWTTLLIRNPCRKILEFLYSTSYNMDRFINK
The assay can be described thus: in vitro inhibition of 11β-HSD1 in H4IIE cells stably transfected with human 11betaHSD1 (cortisone to cortisol, ELISA). Conditions: H4IIE cells stably transfected with full-length human 11betaHSD1 cDNA; 200 nM cortisone, 2 hours at 37° C.; cortisol by competitive ELISA. In kind it is cell-based. Here is the method: H4IIE cells stably transfected with full-length human 11betaHSD1 cDNA were propagated and expanded in DMEM high glucose media (Invitrogen Cat# 11995-065), supplemented with 10% FCS (Invitrogen Cat# 10082-147), 100 units/mL and 100 μg/mL pen/strep (Invitrogen Cat#15140-122), and geneticin (800 μg/mL). One day prior to assay, cells were released from flasks using trypsin/EDTA, centrifuged, and washed with plating media (DMEM high glucose, without phenol red; Invitrogen Cat# 21063-029, supplemented with 2% charcoal stripped FCS; Gemini Cat# 100-119). From a 500,000 cells/mL suspension in plating media, 200 μL of cells were seeded into each well of a 96-well coated plate (BioCoat Cat#356461) and cultured overnight at 37° C. The following day, serially diluted 11betaHSD1 inhibitor compounds dissolved in DMSO were added to DMEM with BSA (2 mg/mL final). The final DMSO concentration was 1%. Media was aspirated from plates, and compounds in media were added to each well. The plates were incubated at 37° C. for 1 hour to allow for cellular uptake of compounds. 10 μL of substrate (cortisone) was then added to each well (200 nM final concentration) and incubated for 2 hours at 37° C. Plates were then transferred to ice and 80 μL of media transferred to a 96-well plate and stored at −30° C.
Quantitation of cortisol in cell media was performed by competitive ELISA using ELISA-Light (Tropix Cat# T10206/EL100S4), anti-cortisol EIA antibody (Assay Designs, Inc. Cat#80-1148), and cortisol-enzyme conjugate (Assay Designs, Inc. Cat# 80-1147). 384-well plates (Falcon Cat#353988) were precoated with anti-mouse IgG (Sigma Cat# M-1397) suspended in 0.9% NaCl (5 mg/mL), 50 μL per well, overnight at 4° C. Plates were washed with PBS, 0.1% Tween-20, then washed with PBS alone. Plates were blocked with Blocking Buffer (Tropix Cat# AI075) for 2 hours at room temperature. The plates were then washed as previously described. Assay samples were thawed, diluted 1:8 in DMEM, 2 mg/mL BSA, 1% DMSO, and 24 μL was transferred to wells of a pre-coated 384-well plate, as well as varying amounts of cortisol standard. To each well, 12 μL of cortisol-conjugate and 12 μL of anti-cortisol EIA antibody were added and incubated 2 hrs at room temperature on a orbital plate shaker. The wells were then emptied by inversion, then washed three times with 100 μL of PBS, 0.05% Tween-20, and then 2 times with 100 μL of Assay Buffer (Tropix). 60 μL of CDP-STAR (Tropix) was added to each well and incubated 10 minutes at room temperature. Chemiluminescence was measured using a Victor V Reader (Perkin Elmer). Cortisol in each sample was interpolated from a standard curve generated with known amounts of cortisol. IC50 values were calculated using the curve fitting software XLFit4 (IDBS).
For `CC(C)Nc1c(C(=O)NC2C3CC4CC(C3)CC2C4)cnn1-c1ccccc1` (stereo not drawn) [Example 1, 5-Isopropylamino-1-phenyl-1H-pyrazole-4-carboxylic acid adamantan-2-ylamide], the IC50 was 1.3 nM. `O=C(NC1C2CC3CC(C2)CC1C3)c1cnn(-c2ccccc2)c1NCc1ccccc1` (stereo not drawn) [Example 2, 5-Benzylamino-1-phenyl-1H-pyrazole-4-carboxylic acid adamantan-2-ylamide]: the IC50 amounted to 14 nM.

`O=C(NC1C2CC3CC(C2)CC1C3)c1cnn(-c2ccccc2)c1NCc1cccnc1` (stereo not drawn) [Example 3, 1-Phenyl-5-[(pyridin-3-ylmethyl)-amino]-1H-pyrazole-4-carboxylic acid adamantan-2-ylamide] gave an IC50 of 350 nM. The compound `O=C(NC1C2CC3CC(C2)CC1C3)c1cnn(-c2ccccc2)c1NCC1CC1` (stereo not drawn) [Example 4, 5-(Cyclopropylmethyl-amino)-1-phenyl-1H-pyrazole-4-carboxylic acid adamantan-2-ylamide] yielded an IC50 of 1.9 nM. `O=C(NC1C2CC3CC(C2)CC1C3)c1cnn(-c2ccccc2)c1NC1CCCCC1` (stereo not drawn) [Example 5, 5-Cyclohexylamino-1-phenyl-1H-pyrazole-4-carboxylic acid adamantan-2-ylamide] showed an IC50 of 4.7 nM. Next, `O=C(NC1C2CC3CC(C2)CC1C3)c1cnn(-c2ccccc2)c1NC1CCC1` (stereo not drawn) [Example 6, 5-Cyclobutylamino-1-phenyl-1H-pyrazole-4-carboxylic acid adamantan-2-ylamide]: 7.6 nM. The compound `CC1CCC(C)N1c1c(C(=O)NC2C3CC4CC(C3)CC2C4)cnn1-c1ccccc1` (stereo not drawn) [Example 7, 5-(2,5-Dimethyl-pyrrolidin-1-y1)-1-phenyl-1H-pyrazole-4-carboxylic acid adamantan-2-ylamide] had an IC50 of 4 nM. Then `CC1CCCN1c1c(C(=O)NC2C3CC4CC(C3)CC2C4)cnn1-c1ccccc1` (stereo not drawn) [Example 8, 5-(2-Methyl-pyrrolidin-1-y1)-1-phenyl-1H-pyrazole-4-carboxylic acid adamantan-2-ylamide], with 1.3 nM; and `CC1CCCN(c2c(C(=O)NC3C4CC5CC(C4)CC3C5)cnn2-c2ccccc2)C1` (stereo not drawn) [Example 9, 5-(3-Methyl-piperidin-1-y1)-1-phenyl-1H-pyrazole-4-carboxylic acid adamantan-2-ylamide], with 3 nM; and `CN(Cc1ccccc1)c1c(C(=O)NC2C3CC4CC(C3)CC2C4)cnn1-c1ccccc1` (stereo not drawn) [Example 10, 5-(Benzyl-methyl-amino)-1-phenyl-1H-pyrazole-4-carboxylic acid adamantan-2-ylamide], with 9.1 nM.

On to `CN(CCc1ccccc1)c1c(C(=O)NC2C3CC4CC(C3)CC2C4)cnn1-c1ccccc1` (stereo not drawn) [Example 11, 5-(Methyl-phenethyl-amino)-1-phenyl-1H-pyrazole-4-carboxylic acid adamantan-2-ylamide], for which the IC50 was 3.7 nM. Next, `CC1CN(c2c(C(=O)NC3C4CC5CC(C4)CC3C5)cnn2-c2ccccc2)CC(C)O1` (stereo not drawn) [Example 12, 5-(2,6-Dimethyl-morpholin-4-y1)-1-phenyl-1H-pyrazole-4-carboxylic acid adamantan-2-ylamide]: 3.7 nM. Compound `O=C(NC1C2CC3CC(C2)CC1C3)c1cnn(-c2ccccc2)c1N1CCCC1` (stereo not drawn) [Example 13, 1-Phenyl-5-pyrrolidin-1-y1-1H-pyrazole-4-carboxylic acid adamantan-2-ylamide] showed an IC50 of 0.55 nM.

For the compound `O=C(NC1C2CC3CC(C2)CC1C3)c1cnn(-c2ccccc2)c1N1CCCCCC1` (stereo not drawn) [Example 14, 5-Azepan-1-y1-1-phenyl-1H-pyrazole-4-carboxylic acid adamantan-2-ylamide], the IC50 is 1 nM. Consider `O=C(NC1C2CC3CC(C2)CC1C3)c1cnn(-c2ccccc2)c1N1CCOCC1` (stereo not drawn) [Example 15, 5-Morpholin-4-y1-1-phenyl-1H-pyrazole-4-carboxylic acid adamantan-2-ylamide], for which the half-maximal inhibitory concentration (IC50) came to 3 nM.

In turn, `O=C(NC1C2CC3CC(C2)CC1C3)c1cnn(-c2ccccc2)c1N1CCCC(CO)C1` (stereo not drawn) [Example 16, 5-(3-Hydroxymethyl-piperidin-1-y1)-1-phenyl-1H-pyrazole-4-carboxylic acid adamantan-2-ylamide] showed a concentration for half-maximal inhibition (IC50) of 6.4 nM. Then `O=C(NC1C2CC3CC(C2)CC1C3)c1cnn(-c2ccccc2)c1N1CCC[C@H]1CO` (stereo partly drawn) [Example 17, 5-((S)-2-Hydroxymethyl-pyrrolidin-1-y1)-1-phenyl-1H-pyrazole-4-carboxylic acid adamantan-2-ylamide], with 42 nM. `O=C(NC1C2CC3CC(C2)CC1C3)c1cnn(-c2ccccc2)c1N1CCC(O)CC1` (stereo not drawn) [Example 18, 5-(4-Hydroxy-piperidin-1-y1)-1-phenyl-1H-pyrazole-4-carboxylic acid adamantan-2-ylamide]: the 50% inhibitory concentration (IC50) was 3 nM. Next, `O=C(NC1C2CC3CC(C2)CC1C3)c1cnn(-c2ccccc2)c1N1CCCC(O)C1` (stereo not drawn) [Example 19, 5-(3-Hydroxy-piperidin-1-y1)-1-phenyl-1H-pyrazole-4-carboxylic acid adamantan-2-ylamide]: 9.2 nM.

As to `O=C(NC1C2CC3CC(C2)CC1C3)c1cnn(-c2ccccc2)c1N1CCC(O)C1` (stereo not drawn) [Example 20, 5-(3-Hydroxy-pyrrolidin-1-y1)-1-phenyl-1H-pyrazole-4-carboxylic acid adamantan-2-ylamide], the IC50 came out at 13 nM. `CC(O)CNc1c(C(=O)NC2C3CC4CC(C3)CC2C4)cnn1-c1ccccc1` (stereo not drawn) [Example 21, 5-(2-Hydroxy-propylamino)-1-phenyl-1H-pyrazole-4-carboxylic acid adamantan-2-ylamide] displayed a half-maximal inhibitory concentration (IC50) of 41 nM. Then `O=C(NC1C2CC3CC(C2)CC1C3)c1cnn(-c2ccccc2)c1NCCO` (stereo not drawn) [Example 22, 5-(2-Hydroxy-ethylamino)-1-phenyl-1H-pyrazole-4-carboxylic acid adamantan-2-ylamide], with 21 nM. Compound `O=C(NC1C2CC3CC(C2)CC1C3)c1cnn(-c2ccccc2)c1NCCCO` (stereo not drawn) [Example 23, 5-(3-Hydroxy-propylamino)-1-phenyl-1H-pyrazole-4-carboxylic acid adamantan-2-ylamide] showed an IC50 of 55 nM. `O=C(NC1C2CC3CC(C2)CC1C3)c1cnn(-c2ccccc2)c1NCCCCO` (stereo not drawn) [Example 24, 5-(4-Hydroxy-butylamino)-1-phenyl-1H-pyrazole-4-carboxylic acid adamantan-2-ylamide] returned an IC50 of 7.5 nM. As for `O=C(NC1C2CC3CC(C2)CC1C3)c1cnn(-c2ccccc2)c1NCC1CCCO1` (stereo not drawn) [Example 25, 1-Phenyl-5-[(tetrahydro-furan-2-ylmethyl)-amino]-1H-pyrazole-4-carboxylic acid adamantan-2-ylamide], the IC50 turned out to be 2 nM. Next, `CN(CCO)c1c(C(=O)NC2C3CC4CC(C3)CC2C4)cnn1-c1ccccc1` (stereo not drawn) [Example 26, 5-[(2-Hydroxy-ethyl)-methyl-amino]-1-phenyl-1H-pyrazole-4-carboxylic acid adamantan-2-ylamide]: 14 nM; `COCCCNc1c(C(=O)NC2C3CC4CC(C3)CC2C4)cnn1-c1ccccc1` (stereo not drawn) [Example 27, 5-(3-Methoxy-propylamino)-1-phenyl-1H-pyrazole-4-carboxylic acid adamantan-2-ylamide]: 1.4 nM.
